Test results: patent US12653785B2, “Compositions and methods for administering a YAP1/WWRT1 inhibiting composition and a GLS1 inhibiting composition” (UNIVERSITY OF PITTSBURGH—OF THE COMMONWEALTH SYSTEM OF …, priority 2020, dated 2026)

How the values were obtained:
[1] = Encapsulation efficiency, loading and release kinetics of drugs from PLGA microparticles; format: physicochemical; details: different formulations (single drug or combination); 0.2% tween 80, 37° C.
Procedure: The morphology of the microparticles was characterized using scanning electron microscopy (SEM—JEOL JSM6510) and the average size of the blank microparticles was determined using dynamic light scattering (Malvern, Worcestershire, UK). The release kinetics of the drugs from PLGA microparticles was determined by incubating 1 mg of microparticles with or without drugs in 1 mL of 0.2% tween 80 (Fisher Scientific, Pittsburgh, PA) in centrifuge tubes on end-over-end rotator at 37° C. Every day for 10 days, the tubes were centrifuged at 2000 g for 5 min, 0.8 mL of the supernatant was retrieved and frozen at −20° C., and 0.8 mL of fresh 0.2% tween 80 was replaced in the tubes. These tubes were then returned to the incubator.
In order to assess the concentration of verteporfin, UV-vis spectroscopy plate reader (SpectraMax, Molecular Devices, Sunnyvale, CA) was utilized. […] Using this wavelength, a standard curve was plotted, and the concentration of the released verteporfin from microparticles was determined. The cumulative amount of verteporfin released from the microparticles was quantified and utilized to determine the percentage encapsulation efficiency and percentage loading.
In order to assess the concentration of CB-839, a high-performance liquid chromatography (HPLC Ultimate 3000, Fisher Scientific, Pittsburgh, PA) protocol was developed. […]

[2] = tested on: monocrotaline rat model of PH; details: drugs delivered systemically; cited from earlier work

Structure (SMILES)	duration of sustained release from PLGA microparticles [1]	reversal of PH (hemodynamic and histopathologic manifestations) [2]
O=C(Cc1cccc(OC(F)(F)F)c1)Nc1ccc(CCCCc2nnc(NC(=O)Cc3ccccn3)s2)nn1 [CB-839]	10 days	substantial reversal
CN(C)c1ccc(C2Nc3ccc4ccccc4c3C3=C2C(=O)CC(C)(C)C3)cc1Br (centres unmarked) [C968, 5-(3-Bromo-4-(dimethylamino)phenyl)-2,2-dimethyl-2,3,5,6-tetrahydrobenzo[a]phenanthridin-4(1H)-one]		substantial reversal
C=Cc1c(C)c2cc3nc(cc4[nH]c(cc5nc(cc1[nH]2)C(C)=C5CCC(=O)O)c(CCC(=O)OC)c4C)[C@@]1(C)C3=CC=C(C(=O)OC)[C@H]1C(=O)OC [verteporfin, 3-[(23S,24R)-14-ethenyl-5-(3-methoxy-3-oxopropyl)-22,23-bis(methoxycarbonyl)-4,10,15,24-tetramethyl-25,26,27,28-tetraazahexacyclo[16.6.1.1^3,6.1^8,11.1^13,16.0^19,24]octacosa-1,3,5,7,9,11(27),12,14,16,18(25),19,21-dodecaen-9-yl]propanoic acid]	6 days	substantial reversal
